US20190201430A1, “TREATING OCULAR NEOVASCULARIZATION” (Massachusetts Eye and Ear Infirmary, priority 2014, published 2019)

Experiments:
caveolin-1 = assay: Western blotting of H2O2 induced caveolin-1 phosphorylation in HUVEC; assay type: cell-based, human; conditions: AICAR 2 mM 2 h
Method: HUVECs (Lonza, Walkersville, Md.) were cultured in Endothelial Growth Medium (EGM, Lonza, Walkersville, Md.). For all experiments, cells were grown at 37° C. in a humidified atmosphere of 5% CO2 and 95% air. Experiments were performed on cells below passage 3 to 6 grown to 80-90% confluence.
Protein extraction and western blotting were carried out as described previously (Morizane et al. JBC). Densitometric analysis of bands was performed using ImageJ software. Lane-loading differences were normalized by β-actin.
(§1) Cells were transfected with siRNAs using Nucleofection kit (Amaxa Biosysteins, Gaithersburg, Md.), following the manufacturer's protocol. The medium was changed at 6 h after transfection. The down-regulation of each protein was evaluated at 3 days after nucleofection.

prdx1/c-Abl complex [1] = assay: Co-immunoprecipitation of prdx1 and c-Abl under VEGF; assay type: cell-based, human; conditions: AICAR 2 mM 2 h, VEGF 12.5 ng/mL 10 min
Method: (§2) Immunoprecipitation was performed with the Universal Magnetic Co-IP Kit (Active Motif North America, Carlsbad, Calif.) according to the manufacturer's instruction.
(§3) Cells were transfected with siRNAs using a Nucleofection kit (Amaxa Biosystems, Gaithersburg, Md.), following the manufacturer's protocol. The medium was changed 6 h after transfection. The down-regulation of each protein was evaluated 3 days after nucleofection.

PTEN = assay: Western blotting of PTEN phosphorylation in HUVECs; assay type: cell-based, human; conditions: AICAR 2 mM, presence or absence of VEGF; FIG. 9A,D
Method: (§4) Human umbilical vein endothelial cells (HUVECs) were cultured in endothelial growth medium (EGM, Lonza, Walkersville, Md.). Normal human dermal fibroblasts (NHDFs) were cultured in fibroblast basal medium (ATCC, Rockville, Md.). Cells were grown at 37° C. in a humidified atmosphere of 95% air, 5% CO2. Experiments were performed on cells below passage 3 to 6 grown to 80%-90% confluence.
(§5) Protein extraction and Western blotting were carried out as described previously (Morizane et al. JBC (26)). We conducted a densitometric analysis of bands using ImageJ software. Lane-loading differences were normalized by β-actin.

AMPK = assay: Western blotting of AMPK phosphorylation in HUVECs (Example 2); assay type: cell-based, human
Method: as §4, §5

HUVECs = assay: Albumin endocytosis assay under VEGF; assay type: cell-based, human; conditions: AICAR 2 mM 2 h, VEGF 12.5 ng/mL 10 min; FIG. 10B
Method: After overnight serum starvation, HUVECs were pretreated with AICAR (2 mM) for 2 h and then stimulated with VEGF (12.5 ng/mL) for 10 min. We added BSA conjugated with Alexa 555 (50 μg/mL, Life Technologies, Gaithersburg, Md.) in the medium during the experiment. Cells on coverslips were washed three times with cold TBS and fixed in 100% methanol at −20° C. for 15 min. Cells were then permeabilized in 0.3% Triton X-100, 0.15% BSA in TBS with 0.05% Tween 20 (TBST) for 15 min at room temperature, and blocked with 0.5% skim milk in TBST for 60 min at room temperature. Cells were incubated in p-caveolin-1 antibody diluted 1:200 and VE-cadherin antibody diluted 1:400 overnight at 4° C., and then incubated for 2 h in secondary antibody diluted 1:300. Cells were then rinsed three times in TBST before mounting in Toto3 (Life Technologies). Images were acquired with a Leica TCS SP2 spectral confocal laser scanning microscope (Leica Microsystems, Wetzlar, Germany).

HUVEC monolayer = assay: In vitro vascular permeability assay (Alexa 555-BSA leakage); assay type: cell-based, human; conditions: AICAR 2 mM 2 h, VEGF 12.5 ng/mL 10 min; FIG. 10A
Method: We conducted the in vitro vascular permeability assay using Alexa Flour 555-labeled bovine serum albumin (BSA) (Invitrogen) and an In Vitro Vascular Permeability Assay kit (Millipore). According to the manufacturer's instructions, HUVECs were seeded at a density of 1×10^5 on a collagen-coated polystyrene filter. After a confluent monolayer was formed, each chamber was treated with AICAR or stimulated with VEGF. To measure endothelial permeability, 100 μL of Alexa Flour 555-BSA solution (0.050 mg/mL) was added into the insert and incubated for 10 min, and then the insert was removed and 100 μL medium was collected from the bottom chamber.
The fluorescent density of samples was analyzed on a SPECTRAmax GEMINI XS Microplate Spectrofluorometer (Molecular Devices, Sunnyvale, Calif.) at excitation and emission wavelengths of 555 nm and 565 nm, respectively.

VEGFR2/caveolin-1 = assay: Immunoprecipitation of VEGFR2 with caveolin-1 under VEGF; assay type: cell-based, human; conditions: AICAR 2 mM 2 h, VEGF 12.5 ng/mL 10 min; FIG. 8F,G
Method: as §2

[2] = test system: retinoblastoma xenografts; conditions: AICAR-treated retinoblastoma xenografts; cited from earlier work
VEGFR2 = assay: Western blotting of VEGF induced VEGFR2 phosphorylation in HUVECs; assay type: cell-based, human; conditions: AICAR 2 mM 2 h, VEGF 12.5 ng/mL 0 to 60 min; FIG. 8C,D
Method: as §4, with “confluence. Protein extraction and Western blotting were carried out as described previously (Morizane et al. JBC (26)). We conducted a densitometric analysis of bands using ImageJ software. Lane-loading differences were normalized by β-actin.” for “confluence.”

prdx1/c-Abl complex [3] = assay: Co-immunoprecipitation of prdx1 and c-Abl under H2O2; assay type: cell-based, human; conditions: AICAR 2 mM 2 h, H2O2 2 mM 30 min
Method: Immunoprecipitation was performed with the Universal Magnetic Co-IP Kit (Active Motif North America, Carlsbad, Calif.), according to the manufacturer's instruction.
as §1

Akt = assay: Western blotting of Akt phosphorylation in HUVECs (VEGF); assay type: cell-based, human
Method: as §4, §5, §3

SMILES: NC(=O)c1ncn([C@@H]2O[C@H](CO)[C@@H](O)[C@H]2O)c1N [AICAR, 5-Aminoimidazole-4-carboxamide riboside]
- inhibitory effect of AICAR on H2O2 induced caveolin-1 phosphorylation after knockdown of either AMPKα isoform (caveolin-1; AMPKα1 or α2 siRNA HUVEC, H2O2 2 mM 30 min, FIG. 3): abolished
- H2O2 induced phosphorylation of caveolin-1 (caveolin-1; HUVEC, then H2O2 0.5-2.0 mM 30 min, FIG. 1A,B): significantly suppressed
- H2O2 induced caveolin-1 phosphorylation in c-Abl siRNA cells (caveolin-1; c-Abl siRNA HUVEC, H2O2 2 mM 30 min, FIG. 5D,E): did not change caveolin-1 phosphorylation significantly
- inhibitory effect of AICAR on H2O2 induced caveolin-1 phosphorylation in cells lacking prdx1 (caveolin-1; prdx1 siRNA HUVEC, H2O2 2 mM 30 min, FIG. 6A,B): abolished
- VEGF induced dissociation between prdx1 and c-Abl (prdx1/c-Abl complex [1]; FIG. 15D): inhibited
- ability of AICAR to inhibit VEGF induced prdx1/c-Abl dissociation after knockdown of AMPKα1 or α2 (prdx1/c-Abl complex [1]; AMPKα1 or α2 siRNA, FIG. 15F,G): decreased
- PTEN phosphorylation on AICAR treatment (time course) (PTEN): resulted in AMPK and PTEN phosphorylation
- AMPK phosphorylation on AICAR treatment (time course) (AMPK; AICAR 2 mM, presence or absence of VEGF, FIG. 9A,B): resulted in AMPK and PTEN phosphorylation
- AMPK phosphorylation on AICAR administration (AMPK; each concentration of AICAR for 2 h, FIG. 12A): dose dependent AMPK phosphorylation
- VEGF-induced albumin endocytosis (HUVECs): significantly suppressed
- VEGF-induced albumin leakage (HUVEC monolayer): significantly suppressed
- VEGFR2 dissociation from caveolin-1 upon VEGF stimulation (VEGFR2/caveolin-1): no effect
- tumor vessel formation [2]: decrease in tumor vessel formation
- VEGFR2 phosphorylation upon VEGF stimulation (VEGFR2): no effect
- H2O2 induced dissociation between prdx1 and c-Abl (prdx1/c-Abl complex [3]; FIG. 6D): inhibited
- inhibitory effect of AICAR on dissociation between c-Abl and prdx1 after deletion of AMPKα1 or α2 (prdx1/c-Abl complex [3]; AMPKα1 or α2 siRNA HUVEC, FIG. 6F,G): decreased
- VEGF induced Akt phosphorylation (Akt; AICAR 2 mM 2 h, VEGF 12.5 ng/mL 0 to 60 min, FIG. 8C,E): significantly suppressed and delayed
- Akt phosphorylation state on AICAR treatment (time course) (Akt; AICAR 2 mM, presence or absence of VEGF, FIG. 9A,C): Akt dephosphorylation
- inhibitory effect of AICAR on VEGF-induced Akt phosphorylation after knockdown of either AMPKα isoform (Akt; AMPKα1 or α2 siRNA, AICAR 2 mM 2 h, VEGF 12.5 ng/mL 10 min, FIG. 13): abolished
- effects of AICAR on Akt dephosphorylation after PTEN knockdown (Akt; PTEN siRNA, AICAR 2 mM 2 h, VEGF 12.5 ng/mL 10 min, FIG. 9E,F): abrogated
